Experimental data reported in patent publication US12116358B2, “Substituted indoles and methods of use thereof” (EPIZYME, INC., priority 2018, dated 2024).
Read-outs that look alike come from different tables or passages of the source.

What was measured:
KMS-34 cells = assay: 14 day KMS-34 long term proliferation (LTP) assay; conditions: read-out: LTP Day 14 Abs IC50
Description: 14 Day KMS-34 Long Term Proliferation (LTP) Assay
Incubate plates for 96 hrs.
The final concentration is 1 μm.
To calculate growth for days 4, 7, 11, and 14:
1. Calculate the split factor for day 4 to 7, day 7 to 11, and day 11-14 The split factor is the viable cells/mL on Day X (either 4, 7, or 11) divided by the density the cells are being split back to.
2. For growth of cells from day 4 to 7, multiply the day 7 viable cells/mL density by the split factor from day 4.
4. For growth of cells from Day 11 to 14, multiply the Day 14 viable cells/mL density by the days 4, 7, and 11 split factors.
5. Plot growth on semi-log chart (viable cells/mL on Y axis, in log, and days on X axis).
From 5 mM to 0.25 μm. […] Mix well by pipetting up and down.

H3K36me3 in A549 cells = assay: In-Cell Western (ICW) assay of SETD2 inhibitors (A549 assay); format: cell-based, human; conditions: A549 cells, read-out: SETD2 A549
Method in brief: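 A549 cells seeded at 4,000/well onto compound and incubated 3 days at 37° C. Methanol-fixed cells stained overnight at 4° C with anti-H3K36me3 (1:1000), then IRDye 800CW secondary with DRAQ5 DNA counterstain. Plates read by Licor imaging at 700 and 800 channels.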

SETD2(1434-1711) = molecular target: T1, SETD2(1434-1711) (Homo sapiens, UniProt Q9BYW2); assay: SETD2 (1434-1711) assay; format: biochemical; conditions: read-out: SETD2 (1434-1711)
T1 construct: SETD2 (1434-1711) Assay; catalogue N/A
T1 sequence (Q9BYW2 1434-1711): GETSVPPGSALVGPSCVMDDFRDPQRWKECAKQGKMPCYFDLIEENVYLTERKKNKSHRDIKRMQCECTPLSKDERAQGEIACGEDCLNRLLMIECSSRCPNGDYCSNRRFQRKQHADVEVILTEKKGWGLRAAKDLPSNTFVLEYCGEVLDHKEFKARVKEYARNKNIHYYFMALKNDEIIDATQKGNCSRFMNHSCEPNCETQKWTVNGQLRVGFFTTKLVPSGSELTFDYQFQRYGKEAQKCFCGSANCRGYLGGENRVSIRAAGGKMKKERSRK

Row | SMILES | IC50 (H3K36me3 in A549 cells) [µM] | IC50 (SETD2(1434-1711)) [µM] | IC50 (H3K36me3 in A549 cells; Homo sapiens) [µM] | IC50 (KMS-34 cells; KMS-34 cells, day 14) [µM] | IC50 (KMS-34 cells; Homo sapiens, KMS-34, 336 h) [µM]
1 | Cc1ccc(F)c2cc(C(=O)Nc3cc(F)cc(N4CCC(N5CCOCC5)C4)c3)[nH]c12 (centres unmarked) [compound 11] | 0.04 | 0.006 | – | 0.09 | –
2 | Cc1ccc(F)c2cc(C(=O)Nc3cccc4cnccc34)[nH]c12 [compound 134] | 0.3 | 0.06 | – | 0.8 | –
3 | Cc1ccc(F)c2cc(C(=O)Nc3cccc(N4CCC(N5CCOCC5)CC4)c3)[nH]c12 [compound 76] | 0.2 | 0.03 | – | 0.36 | –
4 | Cc1nnc(-c2cccc(NC(=O)c3cc4c(F)ccc(C)c4[nH]3)c2)s1 [compound 65] | 0.1 | 0.02 | – | 0.28 | –
5 | CC(=O)N1CCN(c2cccc(NC(=O)c3cc4c(F)ccc(C)c4[nH]3)c2)CC1 [compound 34] | 0.08 | – | – | 0.25 | –
6 | Cc1ccc(F)c2cc(C(=O)Nc3cccc(-n4ccnc4)c3)[nH]c12 [compound 221] | – | 0.1 | 0.5 | – | 0.93
7 | Cc1ccc(F)c2cc(C(=O)Nc3cccc(N4CCOC4=O)c3)[nH]c12 [compound 66] | – | 0.03 | 0.2 | – | 0.42
8 | CC(=O)N1CCN(c2cc(Cl)cc(NC(=O)c3cc4c(F)ccc(C)c4[nH]3)c2)CC1 [compound 31] | 0.08 | 0.01 | – | 0.13 | –
9 | Cc1ccc(F)c2cc(C(=O)Nc3cccc(N4CCOC(CO)C4)c3)[nH]c12 (centres unmarked) [compound 115] | 0.2 | 0.05 | – | 0.26 | –
10 | Cc1ccc(F)c2cc(C(=O)Nc3cccc(-c4cncnc4)c3)[nH]c12 [compound 64] | 0.1 | 0.06 | – | 0.38 | –
11 | Cc1ccc(F)c2cc(C(=O)Nc3cccc(-c4cnn(C)c4)c3)[nH]c12 [compound 151] | – | 0.08 | 0.3 | – | 0.58
12 | Cc1ccc(F)c2cc(C(=O)Nc3cc(Cl)cc(N4CCC(N5CCOCC5)C4)c3)[nH]c12 (centres unmarked) [compound 22] | 0.06 | 0.01 | – | 0.11 | –
13 | CC(=O)N1CCN(c2cccc(NC(=O)c3cc4c(F)ccc(C)c4[nH]3)c2)CC1C (centres unmarked) [compound 32] | 0.08 | 0.02 | – | 0.11 | –
14 | Cc1ccc(F)c2cc(C(=O)Nc3cccc(N4CCN(C(=O)N(C)C)CC4)c3)[nH]c12 [compound 55] | – | 0.05 | 0.1 | – | –
15 | CC(=O)N1CCN(c2cccc(NC(=O)c3cc4c(F)ccc(C)c4[nH]3)c2)CC1CC(C)C (centres unmarked) [compound 193] | – | 0.1 | 0.4 | – | –
16 | Cc1ccc(F)c2cc(C(=O)Nc3cccc(N4CCC5(CC4)CN(C)C5)c3)[nH]c12 [compound 98] | 0.2 | 0.009 | – | – | –
17 | Cc1ccc(F)c2cc(C(=O)Nc3cccc(N4CC5CCC(C4)O5)c3)[nH]c12 [compound 250] | 0.6 | 0.1 | – | – | –
18 | CC(=O)N1CCN(c2cc(F)cc(NC(=O)c3cc4c(F)ccc(C)c4[nH]3)c2)CC1 [compound 7] | 0.04 | – | – | 0.06 | –

More lines, main results first:

Row | IC50 (H3K36me3 in A549 cells) [µM] | IC50 (SETD2(1434-1711)) [µM] | IC50 (H3K36me3 in A549 cells; Homo sapiens) [µM] | SMILES | IC50 (KMS-34 cells; KMS-34 cells, day 14) [µM] | IC50 (KMS-34 cells; Homo sapiens, KMS-34, 336 h) [µM]
19 | > 2 | – | – | CC(=O)N1CCN(C2CCCC(NC(=O)c3cc4c(F)ccc(C)c4[nH]3)C2)CC1 (centres unmarked) [compound 359] | 7.8 | –
20 | – | 22.4 | 15.4 | CC(=O)N1CCN(c2cccc(NC(=O)c3cc4cccc(C5CC5)c4[nH]3)c2)CC1 [compound 509] | – | 2.6
21 | > 2 | – | – | CC(=O)N1CCN(C2CCCC(NC(=O)c3cc4c(F)ccc(C)c4[nH]3)C2)CC1 (centres unmarked) [compound 373] | 10 | –
22 | > 2 | – | – | CC(=O)N1CCN(C2CCCC(NC(=O)c3cc4c(F)ccc(C)c4[nH]3)C2)CC1 (centres unmarked) [compound 372] | 10 | –
23 | 2.8 | 0.3 | – | Cc1cc(-c2cccnc2)cnc1C(NC(=O)c1cc2cccc(C)c2[nH]1)C1CC1 (centres unmarked) [compound 406] | – | –
24 | > 2 | 0.7 | – | Cc1ccc(F)c2cc(C(=O)Nc3cccc(Cc4ncc[nH]4)c3)[nH]c12 [compound 357] | – | –
25 | – | 0.5 | 1.2 | CC(=O)N(C)C1CCCN(C2COCC(NC(=O)c3cc4c(F)ccc(C)c4[nH]3)C2)C1 (centres unmarked) [compound 305] | – | –
26 | – | > 50 | > 25 | Cc1cccnc1C(NC(=O)c1cc2ccnc(C)c2[nH]1)C1CC1 (centres unmarked) [compound 598] | – | –
27 | – | 0.03 | 1.2 | Cc1ccc(F)c2cc(C(=O)Nc3cccc([C@@H]4CC[C@H](N(C)C)C4)c3)[nH]c12 [compound 302] | – | –
28 | – | 0.4 | > 2 | CC(=O)N1CCC(N2CCCCC(NC(=O)c3cc4c(F)ccc(C)c4[nH]3)C2)CC1 (centres unmarked) [compound 867] | – | –
29 | – | 0.03 | 1.3 | Cc1ccc(F)c2cc(C(=O)Nc3cc(C(F)F)cc(N4CCC(N(C)C)CC4)c3)[nH]c12 [compound 311] | – | –
30 | – | 5.8 | > 2 | CC(=O)N1CCN([C@@H]2CCC[C@@H](NC(=O)c3cc4c(F)ccc(C)c4[nH]3)C2)[C@H](C)C1 [compound 1091] | – | –
31 | 11 | 1.6 | – | Cc1cccc2cc(C(=O)Nc3ccc4ccc(CN5CCOCC5)cc4c3)[nH]c12 [compound 487] | – | –
32 | – | 0.01 | 0.09 | CCN([C@@H]1CCN([C@H]2CCC[C@@H](NC(=O)c3cc4c(F)ccc(C)c4[nH]3)C2)C1)S(C)(=O)=O [compound 1054] | – | –
